US20250205235A1, “DOSE REGIMEN FOR VERICIGUAT” (ADVERIO PHARMA GMBH, priority 2023, published 2025)

Experiments:
[1] = some patients receiving vericiguat in clinical trials; cited from earlier work
[2] = test system: participants with chronic heart failure with reduced ejection fraction; assay: Phase 2b open-label clinical study of tolerability and safety of a 5 mg initiation dose of vericiguat (NCT06195930)
Description: A Phase 2b open-label clinical study to evaluate the tolerability and safety of an initiation dose of 5 mg of Vericiguat in participants with chronic heart failure with reduced ejection fraction.
The patients had symptomatic chronic heart failure with reduced ejection fraction (HFrEF). […] Participants underwent a screening visit to assess eligibility. Eligible participants waited a mandatory 2 weeks before returning for Visit 1 in order to be clinically and hemodynamically stable. At Visit 1 (V1), participants received vericiguat with directions to take a 5 mg tablet once daily for 2 weeks. Participants returned for Visit 2 (V2) after 2 weeks of treatment. There were unplanned healthcare visits for heart failure between Visits 1 and 2 at the discretion of the investigator.
Primary objective was to evaluate the tolerability of 5 mg as a starting dose of vericiguat. Endpoint: Treatment tolerability, defined as the completion of the two-week 5 mg dose without discontinuation of study intervention and without moderate to severe symptomatic hypotension between Visit 1 (V1) and Visit 2 (V2) Secondary objective 1 was to describe safety events of initiation of 5 mg dose. Endpoints: Any adverse event reported between V1 and V2. Absence of adverse events related to study intervention between V1 and V2.
Secondary objective 2 was to further evaluate the tolerability of 5 mg as a starting dose of vericiguat. Endpoint: Continuous intake of study intervention between V1 and V2 or restart of study intervention after any temporary interruption.
Dose changes in GDMT medications (RAS blockade, Beta-blocker, MRA, or SGLT2i) or oral diuretics for 2 weeks were discouraged, except when mandated by known side-effects for individual drug classes (e.g., hyperkalemia for MRA or angioedema for ACE-inhibitors/ARNI). Use of short and long-acting nitrates was permitted.
On Days 1-14, 5.0 mg Verquvo® vericiguat was administered orally once daily. The endpoint was tolerability based on need for treatment interruption between Days 1 and Day 14.

[3] = 106 started treatment, 5 mg once daily for 2 weeks

COC(=O)Nc1c(N)nc(-c2nn(Cc3ccccc3F)c3ncc(F)cc23)nc1N [Vericiguat, methyl {4,6-diamino-2-[5-fluoro-1-(2-fluorobenzyl)-1H-pyrazolo[3,4-b]pyridin-3-yl]pyrimidin-5-yl}carbamate]
Effect on systolic blood pressure compared with placebo [1]: reduction of systolic blood pressure | Difference between participants with and without recent worsening heart failure events in meeting primary and secondary endpoints ([2]; 5 mg dose, 2 weeks): no major differences | Primary endpoint: participants who completed the 2-week treatment period without moderate to severe symptomatic hypotension and without temporary treatment interruptions exceeding 1 day ([2]; 5 mg dose, 2 weeks): 93.4% | Secondary endpoint 1: participants who completed the 2-week treatment period without reported intervention-related adverse events ([2]; 5 mg dose, 2 weeks): 90.6% | Secondary endpoint 2: participants who completed treatment with continuous intervention intake or restarted study intervention after a temporary interruption ([2]; 5 mg dose, 2 weeks): 96.2% | patients who continued through the 14-day titration without a medical need for interruption ([2]; 5.0 mg orally once daily, Days 1-14): at least 90% | TREATMENT phase: Completed [2, 3]: 102 (96.2%) Number of participants (%) | TREATMENT phase: Did not complete [2, 3]: 4 (3.8%) Number of participants (%) | Tolerability of initiating treatment at 5 mg (in words) ([2]; HFrEF population with and without recent worsening heart failure events, on current GDMT): well tolerated | discontinuations for AE ([2]; OVERALL N = 106, SAF, 5 mg once daily, two weeks): 4 discontinuations | Any AE ([2]; SAF N = 106, 5 mg): 14 (13.2%) Number (%) of participants | Any AE leading to discontinuation of intervention ([2]; SAF N = 106, 5 mg): 4 (3.8%) Number (%) of participants | Any AE leading to dose modification of study intervention (delays, interruptions and reductions) ([2]; SAF N = 106, 5 mg): 6 (5.7%) Number (%) of participants | Any AE of special interest ([2]; SAF N = 106, 5 mg): 6 (5.7%) Number (%) of participants | Any AE related to procedures required by the protocol ([2]; SAF N = 106, 5 mg): 0 Number (%) of participants | Any SAE ([2]; SAF N = 106, 5 mg): 1 (0.9%) Number (%) of participants | Any SAE leading to discontinuation of intervention ([2]; SAF N = 106, 5 mg): 0 Number (%) of participants | Any SAE related to procedures required by the protocol ([2]; SAF N = 106, 5 mg): 0 Number (%) of participants | Any intervention-related AE ([2]; SAF N = 106, 5 mg): 10 (9.4%) Number (%) of participants | Any intervention-related SAE ([2]; SAF N = 106, 5 mg): 0 Number (%) of participants | Life-threatening SAE ([2]; SAF N = 106, 5 mg): 0 Number (%) of participants | Maximum intensity for any AE: MILD ([2]; SAF N = 106, 5 mg): 9 (8.5%) Number (%) of participants | Maximum intensity for any AE: MODERATE ([2]; SAF N = 106, 5 mg): 4 (3.8%) Number (%) of participants | Maximum intensity for any AE: SEVERE ([2]; SAF N = 106, 5 mg): 1 (0.9%) Number (%) of participants | Maximum intensity for intervention-related AEs: MILD ([2]; SAF N = 106, 5 mg): 8 (7.5%) Number (%) of participants | Maximum intensity for intervention-related AEs: MODERATE ([2]; SAF N = 106, 5 mg): 2 (1.9%) Number (%) of participants | Participants with total duration of interruption/delay of 0 days ([2]; SAF N = 106, 5 mg): 102 (96.2%) n (%) | Participants with total duration of interruption/delay of 1 day ([2]; SAF N = 106, 5 mg): 1 (0.9%) n (%) | Participants with total duration of interruption/delay of 2 days ([2]; SAF N = 106, 5 mg): 3 (2.8%) n (%) | SAE requiring hospitalization ([2]; SAF N = 106, 5 mg): 1 (0.9%) Number (%) of participants | SAE resulting in substantial disruption of normal life functions ([2]; SAF N = 106, 5 mg): 0 Number (%) of participants | SAE with fatal outcome ([2]; SAF N = 106, 5 mg): 0 Number (%) of participants | SAE: Congenital anomaly or birth defect ([2]; SAF N = 106, 5 mg): 0 Number (%) of participants | SAE: Other ([2]; SAF N = 106, 5 mg): 0 Number (%) of participants | Total Duration of Interruption/Delay, Max ([2]; SAF N = 106, 5 mg): 2 days | Total Duration of Interruption/Delay, Mean (SD) ([2]; SAF N = 106, 5 mg): 0.1 (0.3) ^ days | Total Duration of Interruption/Delay, Median ([2]; SAF N = 106, 5 mg): 0.0 days | Total Duration of Interruption/Delay, Min ([2]; SAF N = 106, 5 mg): 0 days | TREATMENT phase: Did not complete, primary reason ADVERSE EVENT ([2]; percentage of the participants who did not complete): 4 (100.0%) Number of participants (%)
